Results published in PubChem BioAssay AID248 (DTP/NCI, 2004).
Values joined by “and” are separate entries in the source; they are usually repeats but may differ in a detail not shown here. Equal entries are not always repeated. Inconclusive results and toxic doses are left out.

System: L1210 leukemia ip in BDF1 mice, survival T/C
Experiment: NCI In Vivo Anticancer Drug Screen. Data for tumor model L1210 Leukemia (intraperitoneal) in B6D2F1 (BDF1) mice
Details: endpoint: mean survival time, higher = longer survival
Method in brief: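 Each compound was tested against a transplantable tumor grown in mice. The endpoint was survival, with treated animals benchmarked against vehicle controls as a simple ratio.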

[1] = dose: 100.0 mg/kg/injection, schedule: Q01DX001 (ip), vehicle: saline
[2] = dose: 100.0 mg/kg/injection, schedule: Q01DX009 (ip), vehicle: saline
[3] = dose: 100.0 mg/kg/injection, schedule: Q04DX003 (ip), vehicle: saline
[4] = dose: 200.0 mg/kg/injection, schedule: Q01DX001 (ip), vehicle: saline
[5] = dose: 200.0 mg/kg/injection, schedule: Q04DX003 (ip), vehicle: saline
[6] = dose: 400.0 mg/kg/injection, schedule: Q01DX001 (ip), vehicle: saline
[7] = dose: 400.0 mg/kg/injection, schedule: Q04DX003 (ip), vehicle: saline
[8] = dose: 100.0 mg/kg/injection, schedule: Q01DX009 (ip), vehicle: saline with Tween-80
[9] = dose: 200.0 mg/kg/injection, schedule: Q01DX009 (ip), vehicle: saline with Tween-80
[10] = dose: 400.0 mg/kg/injection, schedule: Q01DX009 (ip), vehicle: saline with Tween-80
[11] = dose: 50.0 mg/kg/injection, schedule: Q01DX001 (ip), vehicle: carboxymethylcellulose (CMC)
[12] = dose: 200.0 mg/kg/injection, schedule: Q01DX001 (ip), vehicle: carboxymethylcellulose (CMC)
[13] = dose: 400.0 mg/kg/injection, schedule: Q01DX001 (ip), vehicle: carboxymethylcellulose (CMC)
[14] = dose: 100.0 mg/kg/injection, schedule: Q04DX002 (ip), vehicle: saline with Tween-80
[15] = dose: 200.0 mg/kg/injection, schedule: Q04DX002 (ip), vehicle: saline with Tween-80
[16] = dose: 100.0 mg/kg/injection, schedule: Q01DX001 (ip), vehicle: carboxymethylcellulose (CMC)

SMILES: O=C1CCSCC1
- T/C [1]: 107 % of control
- T/C [2]: 100 % of control
- T/C [3]: 100 % of control
- T/C [4]: 104 % of control
- T/C (dose: 200.0 mg/kg/injection, schedule: Q01DX009 (ip), vehicle: saline): 95 % of control
- T/C [5]: 101 % of control
- T/C [6]: 95 % of control
- T/C (dose: 400.0 mg/kg/injection, schedule: Q01DX009 (ip), vehicle: saline): 95 % of control
- T/C [7]: 104 % of control

SMILES: CCCCN1C(=O)c2ccncc2C1=O
- T/C (dose: 100.0 mg/kg/injection, schedule: Q01DX001 (ip), vehicle: saline with Tween-80): 95 % of control
- T/C (dose: 100.0 mg/kg/injection, schedule: Q04DX003 (ip), vehicle: saline with Tween-80): 98 % of control
- T/C (dose: 200.0 mg/kg/injection, schedule: Q01DX001 (ip), vehicle: saline with Tween-80): 98 % of control
- T/C (dose: 200.0 mg/kg/injection, schedule: Q04DX003 (ip), vehicle: saline with Tween-80): 103 % of control
- T/C (dose: 400.0 mg/kg/injection, schedule: Q01DX001 (ip), vehicle: saline with Tween-80): 111 % of control
- T/C (dose: 400.0 mg/kg/injection, schedule: Q04DX003 (ip), vehicle: saline with Tween-80): 100 % of control

SMILES: Cc1cc(C)c2nc(Cl)cc(C)c2c1
- T/C [1]: 91 % of control
- T/C [4]: 91 % of control
- T/C [6]: 104 % of control

SMILES: CC(=O)OC1COC(SC(C)=O)C(OC(C)=O)C1OC(C)=O (configuration not stated)
- T/C (dose: 100.0 mg/kg/injection, schedule: Q01DX001 (ip), vehicle: other): 95 % of control
- T/C (dose: 200.0 mg/kg/injection, schedule: Q01DX001 (ip), vehicle: other): 104 % of control
- T/C (dose: 400.0 mg/kg/injection, schedule: Q01DX001 (ip), vehicle: other): 95 % of control

SMILES: O=C1Cc2ccccc2CN1
- T/C (dose: 75.0 mg/kg/injection, schedule: Q01DX001 (ip), vehicle: acetone): 100 % of control
- T/C (dose: 150.0 mg/kg/injection, schedule: Q01DX001 (ip), vehicle: acetone): 97 % of control

SMILES: O=C1C(Cl)=C(Cl)C(Cl)(Cl)C1(Cl)Cl
- T/C (dose: 12.5 mg/kg/injection, schedule: Q01DX009 (ip), vehicle: Klucel (hydroxypropylcellulose) (HPC)): 98 % of control
- T/C (dose: 12.5 mg/kg/injection, schedule: Q04DX003 (ip), vehicle: Klucel (hydroxypropylcellulose) (HPC)): 98 % of control
- T/C (dose: 25.0 mg/kg/injection, schedule: Q01DX009 (ip), vehicle: Klucel (hydroxypropylcellulose) (HPC)): 101 % of control
- T/C (dose: 25.0 mg/kg/injection, schedule: Q04DX003 (ip), vehicle: Klucel (hydroxypropylcellulose) (HPC)): 96 % of control
- T/C (dose: 50.0 mg/kg/injection, schedule: Q01DX009 (ip), vehicle: Klucel (hydroxypropylcellulose) (HPC)): 94 % of control
- T/C (dose: 50.0 mg/kg/injection, schedule: Q04DX003 (ip), vehicle: Klucel (hydroxypropylcellulose) (HPC)): 100 % of control

SMILES: COc1ccc(CC(=O)c2ccccc2)cc1
- T/C (dose: 100.0 mg/kg/injection, schedule: Q04DX002 (ip), vehicle: saline): 92 % of control
- T/C (dose: 200.0 mg/kg/injection, schedule: Q04DX002 (ip), vehicle: saline): 95 % of control
- T/C (dose: 400.0 mg/kg/injection, schedule: Q04DX002 (ip), vehicle: saline): 104 % of control

SMILES: COc1ccc(/C=N\O)cc1OC
- T/C [8]: 94 % of control and 90 % of control
- T/C [9]: 101 % of control
- T/C [10]: 90 % of control

SMILES: O=C(CCl)c1ccc2c(c1)Nc1ccccc1S2
- T/C [11]: 93 % of control
- T/C [12]: 93 % of control
- T/C [13]: 96 % of control

SMILES: CC(=O)Oc1cc(OC(C)=O)c2ccccc2c1OC(C)=O
- T/C (dose: 1.56 mg/kg/injection, schedule: Q04DX003 (ip), vehicle: saline): 102 % of control
- T/C (dose: 3.12 mg/kg/injection, schedule: Q04DX003 (ip), vehicle: saline): 106 % of control
- T/C (dose: 6.25 mg/kg/injection, schedule: Q04DX003 (ip), vehicle: saline): 102 % of control
- T/C (dose: 12.5 mg/kg/injection, schedule: Q01DX001 (ip), vehicle: saline): 103 % of control
- T/C (dose: 25.0 mg/kg/injection, schedule: Q01DX001 (ip), vehicle: saline): 97 % of control
- T/C (dose: 50.0 mg/kg/injection, schedule: Q01DX001 (ip), vehicle: saline): 100 % of control

SMILES: CCCCCCCCCCC1CCCCC1
- T/C (dose: 50.0 mg/kg/injection, schedule: Q04DX002 (ip), vehicle: saline with Tween-80): 91 % of control
- T/C [14]: 91 % of control
- T/C [15]: 98 % of control

SMILES: O=C(O)/C=C/C(=O)Nc1ccc2c(c1)C(NC(=O)/C=C/C(=O)O)c1ccccc1-2 (configuration not stated)
- T/C [1]: 93 % of control
- T/C [3]: 100 % of control
- T/C [4]: 97 % of control
- T/C [5]: 96 % of control
- T/C [6]: 88 % of control
- T/C [7]: 92 % of control

SMILES: NC(=O)N(CCc1ccccc1)N=O
- T/C (dose: 6.25 mg/kg/injection, schedule: Q01DX Z (ip), vehicle: carboxymethylcellulose (CMC)): 98 % of control
- T/C (dose: 12.5 mg/kg/injection, schedule: Q01DX Z (ip), vehicle: carboxymethylcellulose (CMC)): 109 % of control
- T/C (dose: 25.0 mg/kg/injection, schedule: Q01DX Z (ip), vehicle: carboxymethylcellulose (CMC)): 98 % of control
- T/C (dose: 50.0 mg/kg/injection, schedule: Q01DX Z (ip), vehicle: carboxymethylcellulose (CMC)): 118 % of control
- T/C (dose: 75.0 mg/kg/injection, schedule: Q01DX Z (ip), vehicle: carboxymethylcellulose (CMC)): 103 % of control
- T/C (dose: 100.0 mg/kg/injection, schedule: Q01DX Z (ip), vehicle: carboxymethylcellulose (CMC)): 114 % of control
- T/C (dose: 150.0 mg/kg/injection, schedule: Q01DX Z (ip), vehicle: carboxymethylcellulose (CMC)): 120 % of control
- T/C (dose: 200.0 mg/kg/injection, schedule: Q01DX Z (ip), vehicle: carboxymethylcellulose (CMC)): 111 % of control

SMILES: CC1(C)CCC2(C)CC=C3OC(=O)CCC3(C)C2C1 (configuration not stated)
- T/C [8]: 92 % of control
- T/C (dose: 100.0 mg/kg/injection, schedule: Q04DX003 (ip), vehicle: Klucel (hydroxypropylcellulose) (HPC)): 102 % of control
- T/C [9]: 89 % of control
- T/C (dose: 200.0 mg/kg/injection, schedule: Q04DX003 (ip), vehicle: Klucel (hydroxypropylcellulose) (HPC)): 98 % of control
- T/C [10]: 94 % of control
- T/C (dose: 400.0 mg/kg/injection, schedule: Q04DX003 (ip), vehicle: Klucel (hydroxypropylcellulose) (HPC)): 94 % of control

SMILES: O=C(OC1CCOCC1OC(=O)c1ccccc1)c1ccccc1 (configuration not stated)
- T/C [14]: 100 % of control
- T/C [15]: 100 % of control
- T/C (dose: 400.0 mg/kg/injection, schedule: Q04DX002 (ip), vehicle: saline with Tween-80): 96 % of control

SMILES: Cc1ccc(NC(=O)NCCCO)cc1
- T/C [11]: 101 % of control
- T/C [16]: 101 % of control
- T/C [12]: 106 % of control
- T/C [13]: 104 % of control

SMILES: COc1cc(NC(=O)CN(CCCl)CCCl)cc(OC)c1OC
- T/C (dose: 13.3 mg/kg/injection, schedule: Q01DX009 (ip), vehicle: carboxymethylcellulose (CMC)): 116 % of control
- T/C (dose: 20.0 mg/kg/injection, schedule: Q01DX009 (ip), vehicle: carboxymethylcellulose (CMC)): 100 % of control
- T/C (dose: 25.0 mg/kg/injection, schedule: Q01DX001 (ip), vehicle: carboxymethylcellulose (CMC)): 122 % of control
- T/C (dose: 30.0 mg/kg/injection, schedule: Q01DX009 (ip), vehicle: carboxymethylcellulose (CMC)): 124 % of control
- T/C (dose: 44.4 mg/kg/injection, schedule: Q01DX009 (ip), vehicle: carboxymethylcellulose (CMC)): 123 % of control
- T/C (dose: 45.0 mg/kg/injection, schedule: Q01DX009 (ip), vehicle: carboxymethylcellulose (CMC)): 107 % of control
- T/C [11]: 116 % of control
- T/C (dose: 66.6 mg/kg/injection, schedule: Q01DX009 (ip), vehicle: carboxymethylcellulose (CMC)): 110 % of control
- T/C (dose: 89.0 mg/kg/injection, schedule: Q01DX001 (ip), vehicle: carboxymethylcellulose (CMC)): 112 % of control
- T/C (dose: 89.0 mg/kg/injection, schedule: Q01DX001 (ip), vehicle: saline): 118 % of control
- T/C [16]: 119 % of control
- T/C (dose: 100.0 mg/kg/injection, schedule: Q01DX009 (ip), vehicle: carboxymethylcellulose (CMC)): 86 % of control
- T/C [2]: 170 % of control
- T/C (dose: 133.0 mg/kg/injection, schedule: Q01DX001 (ip), vehicle: carboxymethylcellulose (CMC)): 102 % of control and 115 % of control
- T/C (dose: 150.0 mg/kg/injection, schedule: Q01DX009 (ip), vehicle: carboxymethylcellulose (CMC)): 88 % of control
- T/C (dose: 150.0 mg/kg/injection, schedule: Q01DX009 (ip), vehicle: saline): 90 % of control
- T/C [12]: 114 % of control and 120 % of control
- T/C (dose: 300.0 mg/kg/injection, schedule: Q01DX001 (ip), vehicle: carboxymethylcellulose (CMC)): 107 % of control
